# Measured values reported in publication PMC4164784, “4E-BPs require non-canonical 4E-binding motifs and a lateral surface of eIF4E to repress translation” (Nature Communications, 2014).
# No end group written: not given here.
# Test system: eIF4E (II-AA mutant)–eIF4G complex
# Experiment: Competition assay, displacement of GST-eIF4G from preassembled eIF4E (II-AA)–eIF4G complexes
# Format: biochemical, Drosophila melanogaster
# Conditions: Fig. 4; 2 μM complex, GB1-fused competitor, 20 min at 4 °C, Strep-Tactin pull down; n=2
# Description: To obtain the preassembled eIF4E–eIF4G complexes used in Figs 4 and 5d–g, full-length eIF4E (WT or the II-AA mutant) containing an N-terminal SNH-tag was coexpressed with an N-terminal GST-tagged eIF4G (residues 578–650). The cells were lysed by sonication in lysis buffer containing 50 mM HEPES (pH 7.2), 300 mM NaCl and 2 mM DTT. The complexes were purified from the cleared lysates using Protino Glutathione Agarose 4B beads (Machery-Nagel). The complex was further purified using a heparin column (HiTrap Heparin HP 5 ml, GE Healthcare) and a final size exclusion chromatography (Superdex 200 16/60, GE Healtcare) in 20 mM HEPES (pH 7.2), 200 mM NaCl and 2 mM DTT.
# For the titration experiments shown in Fig. 4, 2 μM of purified complexes containing SHN-eIF4E (WT or II-AA mutant) bound to GST-eIF4G (residues 578–650) were incubated with increasing amounts (2–20 μM) of purified competitor proteins for 20 min at 4 °C. The eIF4E-bound proteins were recovered via Strep-Tactin Sepharose pull down and eluted with lysis buffer containing 2.5 mM desthiobiotin. The proteins were analyzed by 15% SDS–PAGE followed by staining with Coomassie blue staining. […]
# presence of MBP (negative control), increasing amounts of 4E-BP peptides or eIF4G-GB1 in […]
# The amounts of GST-eIF4G bound to eIF4E in each experimental condition were determined using the Image J software after Coomassie blue staining. To rule out the possibility that changes in the amount of GST-eIF4G bound to eIF4E resulted from variations in the loading volume, all values were normalized to the levels of SHN-eIF4E present in each condition. These values were set to 100 in the presence of MBP.
# Each experiment was repeated at least twice. (e,f) Quantification of the experiments shown in Fig. 5d–g. The amounts of GST-eIF4G remaining bound to eIF4E in the presence of MBP, 4E-BP peptides or eIF4G-GB1 were normalized to those of eIF4E and set to 100 in the presence of MBP. […]
# micrographs of fixed S2 cells expressing HA-4E-T and GFP-Tral. The localization of HA-4E-T was determined by indirect immunofluorescence using an anti-HA antibody. […]
row,Substance,displacement of eIF4G from eIF4E II-AA–eIF4G complex (in words)
1,"CUP C+NC: CUP residues 325–376, eIF4E-binding region short, C-terminal GB1 (KSYTRSRLMDIRNGMFNALMHRSKESFVMPRIATCDDIELEGRLRRMNIWRT-GB1; UniProt Q9VMA3 325-376, looked up, fragment)",did not efficiently displace eIF4G
2,"Thor C+NC: Thor residues 50–83, eIF4E-binding region short, C-terminal GB1 (TKLIYERAFMKNLRGSPLSQTPPSNVPSCLLRGT-GB1; UniProt Q9XZ56 50-83, looked up, fragment)",did not efficiently displace eIF4G
3,"4E-T C+NC: 4E-T residues 9–44, eIF4E-binding region short, C-terminal GB1",did not efficiently displace eIF4G
